This passage reports Activity results from ChEMBL document CHEMBL1121597, “Synthesis and some pharmacological properties of [8-L-tryptophan]oxytocin” (1980).

The test system of assay [1] is Rattus norvegicus. As to the kind of experiment: Compound was evaluated for the intrauterine pressure assayed by intravenous injection into anesthetized rats pretreated with diethylstilbestrol. It is filed as functional.
The test system of assay [2] is Rattus norvegicus. The assay is described as follows: Compound was evaluated for the vasopressor activity when injected intravenously into anesthetized rats pretreated with phenoxybenzamine. It is filed as functional.

Positions of bridges follow the written chain, without caps; N, C: chain ends. Residues, ends and D or L forms follow the SMILES beside them.

Turning to `CC[C@H](C)[C@@H]1NC(=O)[C@H](Cc2ccc(O)cc2)NC(=O)[C@@H](N)CSSC[C@@H](C(=O)N2CCC[C@H]2C(=O)N[C@@H](Cc2c[nH]c3ccccc23)C(=O)NCC(N)=O)NC(=O)[C@H](CC(N)=O)NC(=O)[C@H](CCC(N)=O)NC1=O` (H-CYIQNCPWG-NH2; disulfide 1-6), the values for the Activity in assay [1] and in assay [2] were 50 U mg-1 and less than 0.25 U mg-1, respectively.
